The test system of series [1] is human lung fibroblast (WI38). Briefly: In vitro cytotoxicity against human normal cell line (MTT). It counts as cell-based. As to conditions: Homo sapiens, WI-38, human normal cell line WI38; mean ± SD, n = 3. The text has this: (§1) The anticancer agent's selectivity for cancer cells is a critical consideration for any researcher, as it can decrease the molecule's adverse effects on normal human cells.

Series [2] deals with mammary gland breast cancer (MCF-7). Description: Antitumor screening using MTT assay. Conditions: Homo sapiens; for IC50: MCF7, read-out: In-vitro cytotoxicity IC50 (µM) MCF-7. (Formazan colour is commonly taken as a measure of viable cells.)
Excerpt: (§2) Hepatocellular carcinoma (HePG2), mammary gland breast cancer (MCF-7), epithelioid carcinoma cervix cancer (Hela), and human prostate cancer were included on the panel (PC3). […] The cell lines were obtained from the American Type Culture Collection (ATCC) through VACSERA, a Cairo-based holding firm for biological goods and vaccines.
(§3) The panel consisted of hepatocellular carcinoma (HePG2), mammary gland breast cancer (MCF-7), epithelioid carcinoma cervix cancer (Hela) and human prostate cancer (PC3). Human lung fibroblast (WI38) was used to assay the cytotoxicity effect on normal cell. The cell lines were obtained from ATCC via Holding company for biological products and vaccines (VACSERA), Cairo, Egypt. The cytotoxic activity was defined as the concentration of the compound that causes 50% growth inhibition compared with the growth of untreated cells.
Series [3] relates to epithelioid carcinoma cervix cancer (Hela). Briefly: Antitumor screening using MTT assay. Conditions: Homo sapiens, HeLa; for IC50: read-out: In-vitro cytotoxicity IC50 (µM) Hela.
Excerpt: as §2, §3
The test system of series [4] is human prostate cancer (PC3). Description: Antitumor screening using MTT assay. Conditions: Homo sapiens; for IC50: read-out: In-vitro cytotoxicity IC50 (µM) PC3.
Series [5] deals with Hepatocellular carcinoma (HePG2). Briefly: Antitumor screening using MTT assay. It counts as cell-based, human. Conditions: Homo sapiens; for IC50: mean ± SD, n = 3, read-out: In-vitro cytotoxicity IC50 (µM) HePG2.
Excerpt: as §2, §3
Series [6] is described as follows: In vitro cytotoxicity against human normal cell line (MTT). In kind it is cell-based. As to conditions: human, WI38 human lung fibroblast cells (normal cell line), WI38, read-out: Average of Relative viability of cells (%).
Excerpt: as §1

In the next series the target is human PI3Kα (Homo sapiens, UniProt P42336). Briefly: Human PI3Kα enzyme inhibition assay (ELISA). (An ELISA detects its analyte on a solid surface through an enzyme-linked reagent.)
Setting [7] is: MCF7, read-out: Average of Relative viability of cells (%).
The mark [8] stands for this setting: read-out: Average of Relative viability of cells (%).

Chain of human PI3Kα (P42336 whole entry): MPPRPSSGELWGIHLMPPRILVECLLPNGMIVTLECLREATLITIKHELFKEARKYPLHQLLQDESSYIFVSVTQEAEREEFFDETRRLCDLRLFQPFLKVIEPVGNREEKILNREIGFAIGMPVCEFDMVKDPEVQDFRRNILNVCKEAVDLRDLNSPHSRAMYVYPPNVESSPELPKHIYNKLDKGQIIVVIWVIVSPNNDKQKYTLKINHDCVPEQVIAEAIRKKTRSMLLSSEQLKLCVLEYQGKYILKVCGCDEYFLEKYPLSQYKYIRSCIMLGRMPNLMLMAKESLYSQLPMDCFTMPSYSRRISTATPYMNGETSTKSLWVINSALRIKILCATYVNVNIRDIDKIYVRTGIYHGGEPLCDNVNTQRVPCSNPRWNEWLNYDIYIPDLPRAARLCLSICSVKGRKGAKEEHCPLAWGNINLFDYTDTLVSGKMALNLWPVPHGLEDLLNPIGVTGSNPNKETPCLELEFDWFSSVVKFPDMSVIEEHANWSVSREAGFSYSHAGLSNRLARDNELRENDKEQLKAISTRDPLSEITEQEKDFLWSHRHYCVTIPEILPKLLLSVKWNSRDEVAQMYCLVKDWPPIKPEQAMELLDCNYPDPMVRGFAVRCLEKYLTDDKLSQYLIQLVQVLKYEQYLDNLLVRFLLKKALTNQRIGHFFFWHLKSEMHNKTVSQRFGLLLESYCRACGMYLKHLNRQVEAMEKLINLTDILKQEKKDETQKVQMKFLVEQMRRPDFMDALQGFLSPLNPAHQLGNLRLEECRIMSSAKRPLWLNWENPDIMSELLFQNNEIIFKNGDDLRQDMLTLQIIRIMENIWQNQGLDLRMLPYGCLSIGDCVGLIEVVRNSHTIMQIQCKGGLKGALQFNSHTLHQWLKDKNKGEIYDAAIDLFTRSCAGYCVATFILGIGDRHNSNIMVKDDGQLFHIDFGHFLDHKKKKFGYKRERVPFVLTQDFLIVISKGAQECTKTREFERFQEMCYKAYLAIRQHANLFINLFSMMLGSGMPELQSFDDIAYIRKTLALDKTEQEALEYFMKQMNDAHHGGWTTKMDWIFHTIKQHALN
Chain of human PI3Kα (P27986 whole entry partner): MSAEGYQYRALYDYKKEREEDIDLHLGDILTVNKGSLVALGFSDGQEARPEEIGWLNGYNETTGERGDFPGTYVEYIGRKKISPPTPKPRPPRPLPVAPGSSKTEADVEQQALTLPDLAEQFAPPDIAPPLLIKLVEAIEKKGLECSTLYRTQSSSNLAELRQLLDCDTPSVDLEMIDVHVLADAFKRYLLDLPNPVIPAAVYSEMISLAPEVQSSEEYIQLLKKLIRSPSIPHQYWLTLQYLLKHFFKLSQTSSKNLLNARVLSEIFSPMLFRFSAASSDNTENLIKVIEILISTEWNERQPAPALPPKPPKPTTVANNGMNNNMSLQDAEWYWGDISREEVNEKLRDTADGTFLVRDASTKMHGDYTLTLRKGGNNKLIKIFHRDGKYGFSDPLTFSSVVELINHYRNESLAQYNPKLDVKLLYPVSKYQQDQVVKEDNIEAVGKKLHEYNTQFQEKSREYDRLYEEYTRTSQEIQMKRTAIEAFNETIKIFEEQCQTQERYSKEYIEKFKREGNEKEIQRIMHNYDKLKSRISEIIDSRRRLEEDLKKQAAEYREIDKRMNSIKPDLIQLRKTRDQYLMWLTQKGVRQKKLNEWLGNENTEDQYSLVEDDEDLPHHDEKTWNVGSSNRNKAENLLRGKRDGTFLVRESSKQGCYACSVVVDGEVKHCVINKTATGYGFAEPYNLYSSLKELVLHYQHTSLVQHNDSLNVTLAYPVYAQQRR
Method for human PI3Kα: PI3Kα and VEGFR-2 activity were verified by enzyme-linked immunosorbent assay (ELISA) assay technique. […] Then, the mean absorbance of each group of standard and tested compounds was determined. The standard curve was drawn on log–log paper with the absorbance on the Y-axis and the standard concentration on the X-axis.

As a reminder, the melting point is the temperature of the solid-liquid transition. By IC50 is commonly meant the concentration at which inhibition is half-maximal. As to `C/C(=N\N=C\c1ccc(O)cc1)c1cc2ccccc2o1` [Compound 11, (E)-1-[1-(benzofuran-2-yl)ethylidene]-2-((E)-4-hydroxybenzylidene)hydrazine], the melting point lay within 154 to 156 °C. Moreover, half-maximal inhibition in series [1] (IC50) required 43.2 ± 2.9 µM. Further, the IC50 in series [2] was more than 100 µM. In series [3], the IC50 was determined as 89.3 ± 3.2 µM. For the same compound, the IC50 in series [4] was more than 100 µM. Further, in series [5], the IC50 stood at 84.9 ± 3.2 µM.

A word on the viability: it is a read-out of living cells in per cent, often relative to untreated cells. `C\C(=N/N=C/C=C/c1ccccc1)c1cc2ccccc2o1` [Compound 12]: the melting point was in the range of 141 to 143 °C. Also, the viability at 1.56 µM in series [6] (Conc. 1.56 µM) was 100%. For the same compound, in series [6] (Conc. 3.125 µM), the viability at 3.125 µM was 100%. The viability at 6.25 µM in series [6] (Conc. 6.25 µM) was found to be 91.3%. In addition, the viability at 12.5 µM in series [6] (Conc. 12.5 µM) stood at 78.1%. The viability at 25 µM in series [6] (Conc. 25 µM) was found to be 61.9%. Further, the viability at 50 µM in series [6] (Conc. 50 µM) is 52.5%. Also, the viability at 100 µM in series [6] (Conc. 100 µM) worked out at 41%. The compound further showed an IC50 in series [1] of 56.5 ± 3.2 µM. Besides, in series [2] (setting [7]), the viability at 1.56 µM turned out to be 100%, the viability at 3.125 µM amounted to 100%, the viability at 6.25 µM is 94.7% and the viability at 12.5 µM came to 81.8%. Further, in series [2] (setting [7]), the viability at 25 µM came out at 70.2%, the viability at 50 µM is 57.1% and the viability at 100 µM was found to be 43.2%. In addition, the IC50 in series [2] stood at 68.4 ± 3.6 µM. Besides, in series [3] (setting [8]), the viability at 1.56 µM is 100%, the viability at 3.125 µM was 100%, the viability at 6.25 µM is 86.6% and the viability at 12.5 µM amounted to 72.3%. In series [3] (setting [8]), the viability at 25 µM turned out to be 59.2%, the viability at 50 µM stood at 41.8% and the viability at 100 µM is 34.1%. Further, the IC50 in series [3] turned out to be 39.8 ± 2.7 µM. Besides, in series [4] (setting [8]), the viability at 1.56 µM came to 100%, the viability at 3.125 µM came to 100%, the viability at 6.25 µM worked out at 98.4% and the viability at 12.5 µM worked out at 86.6%. In series [4] (setting [8]), the viability at 25 µM came out at 71.7%, the viability at 50 µM worked out at 55% and the viability at 100 µM is 47.3%. The IC50 in series [4] is 74.4 ± 3.9 µM. Besides, in series [5] (Conc. 1.56 µM, read-out: Average of Relative viability of cells (%)), the viability at 1.56 µM was 100%. Besides, the viability at 3.125 µM in series [5] (Conc. 3.125 µM, read-out: Average of Relative viability of cells (%)) came to 100%. Also, the viability at 6.25 µM in series [5] (Conc. 6.25 µM, read-out: Average of Relative viability of cells (%)) amounted to 100%. The viability at 12.5 µM in series [5] (Conc. 12.5 µM, read-out: Average of Relative viability of cells (%)) worked out at 91.3%. The viability at 25 µM in series [5] (Conc. 25 µM, read-out: Average of Relative viability of cells (%)) was found to be 70.5%. For the same compound, in series [5] (Conc. 50 µM, read-out: Average of Relative viability of cells (%)), the viability at 50 µM was 54%. Besides, the viability at 100 µM in series [5] (Conc. 100 µM, read-out: Average of Relative viability of cells (%)) was 39.4%. Further, in series [5], the IC50 is 62 ± 3.2 µM.

In the case of `O=c1cc(N2CCOCC2)oc2c(-c3ccccc3)cccc12` [LY294002, reference compound], the PI3K-α %inh at human PI3Kα (conc 0.1 (unit not given)) was 8.66%; at human PI3Kα (conc 1 (unit not given)), 21.2%; on human PI3Kα (conc 10 (unit not given)) it was 54.8%; on human PI3Kα (conc 100 (unit not given)) it was 76.7%.

Source of the values: publication PMC9556824, “Design, synthesis and computational study of new benzofuran hybrids as dual PI3K/VEGFR2 inhibitors targeting cancer” (Scientific Reports, 2022).
